Patent publication US9403839B2, “Pyran-spirocyclic piperidine amides as modulators of ion channels” (Vertex Pharmaceuticals Incorporated, priority 2012, dated 2016)
pIC50: −log10 of the molar value.

The compounds below were run against human NaV subtype, like NaV 1.7 (Homo sapiens, UniProt Q15858) (assay: E-VIPR optical membrane potential assay with electrical stimulation). Conditions: one or more sodium channels; assay and NaV subtype not specified for Table 3; read-out: IC50 Binned Activity Data.
Chain of human NaV subtype, like NaV 1.7 (Q15858 whole entry): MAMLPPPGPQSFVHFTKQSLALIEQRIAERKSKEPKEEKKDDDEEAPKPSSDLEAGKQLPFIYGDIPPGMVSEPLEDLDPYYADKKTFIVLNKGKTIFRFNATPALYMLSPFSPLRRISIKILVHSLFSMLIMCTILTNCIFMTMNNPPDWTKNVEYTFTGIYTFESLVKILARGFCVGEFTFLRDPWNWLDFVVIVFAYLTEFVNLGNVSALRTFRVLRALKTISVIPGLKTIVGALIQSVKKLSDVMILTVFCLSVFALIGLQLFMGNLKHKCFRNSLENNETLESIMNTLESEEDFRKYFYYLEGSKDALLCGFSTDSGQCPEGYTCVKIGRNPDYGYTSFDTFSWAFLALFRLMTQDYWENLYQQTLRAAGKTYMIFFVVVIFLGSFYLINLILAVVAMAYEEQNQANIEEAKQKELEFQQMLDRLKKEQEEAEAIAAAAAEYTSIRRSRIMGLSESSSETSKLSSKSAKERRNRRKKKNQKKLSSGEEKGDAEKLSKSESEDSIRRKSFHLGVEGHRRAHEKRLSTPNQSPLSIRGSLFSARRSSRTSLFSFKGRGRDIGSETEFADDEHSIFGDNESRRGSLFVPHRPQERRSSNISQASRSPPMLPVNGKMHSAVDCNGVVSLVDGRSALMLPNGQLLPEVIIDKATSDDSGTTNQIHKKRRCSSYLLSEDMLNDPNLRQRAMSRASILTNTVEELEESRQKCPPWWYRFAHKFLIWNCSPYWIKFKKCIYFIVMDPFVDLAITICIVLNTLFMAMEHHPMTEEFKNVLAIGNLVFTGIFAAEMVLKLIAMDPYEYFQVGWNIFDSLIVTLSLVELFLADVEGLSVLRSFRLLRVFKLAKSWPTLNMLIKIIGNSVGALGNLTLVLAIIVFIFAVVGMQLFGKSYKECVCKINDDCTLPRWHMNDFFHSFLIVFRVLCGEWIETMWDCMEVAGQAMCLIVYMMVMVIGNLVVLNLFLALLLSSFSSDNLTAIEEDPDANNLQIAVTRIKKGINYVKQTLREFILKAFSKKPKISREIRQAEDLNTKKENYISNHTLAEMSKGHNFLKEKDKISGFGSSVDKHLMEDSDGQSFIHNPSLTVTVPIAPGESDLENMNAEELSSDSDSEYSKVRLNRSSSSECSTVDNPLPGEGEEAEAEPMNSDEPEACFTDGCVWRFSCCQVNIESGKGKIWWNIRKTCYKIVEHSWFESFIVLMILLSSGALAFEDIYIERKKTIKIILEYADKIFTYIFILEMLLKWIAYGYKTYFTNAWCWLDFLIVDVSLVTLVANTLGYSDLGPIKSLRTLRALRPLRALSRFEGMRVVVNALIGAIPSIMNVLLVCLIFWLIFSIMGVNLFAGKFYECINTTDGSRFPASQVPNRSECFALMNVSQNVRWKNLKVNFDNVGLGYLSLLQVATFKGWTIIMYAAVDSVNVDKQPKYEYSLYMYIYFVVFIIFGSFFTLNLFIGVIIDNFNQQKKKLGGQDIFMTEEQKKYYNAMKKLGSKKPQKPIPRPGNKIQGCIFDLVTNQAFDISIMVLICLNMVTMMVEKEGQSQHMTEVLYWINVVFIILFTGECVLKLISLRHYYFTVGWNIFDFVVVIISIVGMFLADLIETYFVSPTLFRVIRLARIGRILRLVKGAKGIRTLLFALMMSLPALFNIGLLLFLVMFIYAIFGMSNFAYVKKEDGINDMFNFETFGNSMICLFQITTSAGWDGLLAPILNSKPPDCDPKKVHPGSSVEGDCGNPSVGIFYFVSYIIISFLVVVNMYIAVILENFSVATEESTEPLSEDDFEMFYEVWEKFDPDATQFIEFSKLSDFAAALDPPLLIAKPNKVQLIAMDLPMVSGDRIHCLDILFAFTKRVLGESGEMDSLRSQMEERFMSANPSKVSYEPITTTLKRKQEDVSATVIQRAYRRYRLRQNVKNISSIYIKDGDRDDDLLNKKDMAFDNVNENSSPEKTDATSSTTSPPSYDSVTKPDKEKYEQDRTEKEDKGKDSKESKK
Type: cell-based
From the text: Assays for Detecting and Measuring NaV Inhibition Properties of Compound E-VIPR Optical Membrane Potential Assay Method with Electrical Stimulation
Sodium channels are voltage-dependent proteins that can be activated by inducing membrane voltage changes by applying electric fields. The electrical stimulation instrument and methods of use are described in Ion Channel Assay Methods PCT/US01/21652, herein incorporated by reference and are referred to as E-VIPR. The instrument comprises a microtiter plate handler, an optical system for exciting the coumarin dye while simultaneously recording the coumarin and oxonol emissions, a waveform generator, a current- or voltage-controlled amplifier, and a device for inserting electrodes in well. Under integrated computer control, this instrument passes user-programmed electrical stimulus protocols to cells within the wells of the microtiter plate.
24 hours before the assay on E-VIPR, HEK cells expressing human NaV subtype, like NaV 1.7, are seeded in 384-well poly-lysine coated plates at 15,000-20,000 cells per well. Other subtypes are performed in an analogous mode in a cell line expressing the NaV of interest. HEK cells are grown in media (exact composition is specific to each cell type and NaV subtype) supplemented with 10% FBS (Fetal Bovine Serum, qualified; GibcoBRL #16140-071) and 1% Pen-Strep (Penicillin-Streptomycin; GibcoBRL #15140-122). Cells are grown in vented cap flasks, in 90% humidity and 10% CO2, to 100% confluence. They are usually split by trypsinization 1:10 or 1:20, depending on scheduling needs, and grown for 2-3 days before the next split.
100 mg/mL Pluronic F-127 (Sigma #P2443), in dry DMSO
Compound Plates: 384-well round bottom plate, e.g. Corning 384-well Polypropylene Round Bottom #3656
Cell Plates: 384-well tissue culture treated plate, e.g. Greiner #781091-1B
Bath1 buffer. Glucose 10 mM (1.8 g/L), Magnesium Chloride (Anhydrous), 1 mM (0.095 g/L), Calcium Chloride, 2 mM (0.222 g/L), HEPES 10 mM (2.38 g/L), Potassium Chloride, 4.5 mM (0.335 g/L), Sodium Chloride 160 mM (9.35 g/L).
Hexyl Dye Solution: Bath1 Buffer+0.5% β-cyclodextrin (make this prior to use, Sigma #C4767), 8 μM CC2-DMPE+2.5 μM DiSBAC6(3). To make the solution Add volume of 10% Pluronic F127 stock equal to volumes of CC2-DMPE+DiSBAC6(3). The order of preparation is first mix Pluronic and CC2-DMPE, then add DiSBAC6(3) while vortexing, then add Bath1+β-Cyclodextrin.
1) Pre-spot compounds (in neat DMSO) into compound plates. Vehicle control (neat DMSO), the positive control (20 mM DMSO stock tetracaine, 125 μM final in assay) and test compounds are added to each well at 160× desired final concentration in neat DMSO. Final compound plate volume will be 80 μL (80-fold intermediate dilution from 1 μL DMSO spot; 160-fold final dilution after transfer to cell plate). Final DMSO concentration for all wells in assay is 0.625%.
2) Prepare Hexyl Dye Solution.
3) Prepare cell plates. On the day of the assay, medium is aspirated and cells are washed three times with 100 μL of Bath1 Solution, maintaining 25 μL residual volume in each well.
4) Dispense 25 μL per well of Hexyl Dye Solution into cell plates. Incubate for 20-35 minutes at room temp or ambient conditions.
5) Dispense 80 μL per well of Bath1 into compound plates. Acid Yellow-17 (1 mM) is added and Potassium Chloride can be altered from 4.5 to 20 mM depending on the NaV subtype and assay sensitivity.
6) Wash cell plates three times with 100 μL per well of Bath1, leaving 25 of residual volume. Then transfer 25 uL per well from Compound Plates to Cell Plates. Incubate for 20-35 minutes at room temp/ambient condition
7) Read Plate on E-VIPR. Use the current-controlled amplifier to deliver stimulation wave pulses for typically 9 seconds and a scan rate of 400 Hz. A pre-stimulus recording is performed for 0.5 seconds to obtain the un-stimulated intensities baseline. […]

| SMILES | pIC50 |
| --- | --- |
| CCOC1CC(c2ccccc2)OC2(CCN(C(=O)c3cnc4ccccc4c3)CC2)C1 (stereo not drawn) [Compound 95] | < 5.30 |
| CCOC1CC(c2ccccc2)OC2(CCN(C(=O)c3cccc(C)n3)CC2)C1 (stereo not drawn) [Compound 122] | < 5.30 |
| CCOC1CC(c2ccccc2)OC2(CCN(C(=O)c3cc(-c4ccc(C)cc4)on3)CC2)C1 (stereo not drawn) [Compound 53] | 5.30 to 5.70 |
| CCOC1CC(c2ccccc2)OC2(CCN(C(=O)c3c[nH]c4ncccc34)CC2)C1 (stereo not drawn) [Compound 89] | ≥ 5.70 |
| CCOC1CC(c2ccccc2)OC2(CCN(C(=O)c3ccc(OC)c(OC(F)F)c3)CC2)C1 (stereo not drawn) [Compound 62] | ≥ 5.70 |
| CCOC1CC(c2cccnc2)OC2(CCN(C(=O)c3ccc(OC(C)C)c(C)n3)CC2)C1 (stereo not drawn) [Compound 38] | 5.30 to 5.70 |
| CCCOC1CC(c2cncs2)OC2(CCN(C(=O)c3ccc(OC(C)C)c(C)c3)CC2)C1 (stereo not drawn) [Compound 8] | ≥ 5.70 |
| CCOC1CC(c2ccccc2)OC2(CCN(C(=O)c3ccc(COCC(F)(F)F)cc3)CC2)C1 (stereo not drawn) [Compound 46] | ≥ 5.70 |
| CCOC1CC(c2ccccc2)OC2(CCN(C(=O)c3cccnc3N3CCCCC3)CC2)C1 (stereo not drawn) [Compound 64] | ≥ 5.70 |
| CCOC1CC(CC)OC2(CCN(C(=O)c3ccc(OC(C)C)c(C)c3)CC2)C1 (stereo not drawn) [Compound 194] | 5.30 to 5.70 |
| CCOC1CC(c2ccccc2)OC2(CCN(C(=O)c3ccc(C#N)c(C)n3)CC2)C1 (stereo not drawn) [Compound 50] | < 5.30 |
| CCOC1CC(c2ccccc2)OC2(CCN(C(=O)c3ccc(C)cc3F)CC2)C1 (stereo not drawn) [Compound 97] | ≥ 5.70 |
| CCOC1CC(c2cccnc2)OC2(CCN(C(=O)c3ccc(OCCC(C)C)c(OC)c3)CC2)C1 (stereo not drawn) [Compound 39] | ≥ 5.70 |
| CCOC1CC(c2ccccc2)OC2(CCN(C(=O)c3ccc(OC(C)C)c(Cl)c3)CC2)C1 (stereo not drawn) [Compound 171] | ≥ 5.70 |
| CCOC1CC(c2ccccc2)OC2(CCN(C(=O)c3ccc(F)c(F)c3OC)CC2)C1 (stereo not drawn) [Compound 19] | ≥ 5.70 |
| CCOC1CC(c2ccccc2)OC2(CCN(C(=O)c3ccc(OC(F)F)c(OC)c3)CC2)C1 (stereo not drawn) [Compound 135] | ≥ 5.70 |
| CCOC1CC(c2ccccc2)OC2(CCN(C(=O)c3ccc(N4CCCC4)nc3)CC2)C1 (stereo not drawn) [Compound 70] | 5.30 to 5.70 |
| CCOC1CC(c2cccnc2)OC2(CCN(C(=O)c3ccc(C(C)(C)C)c(OC)c3)CC2)C1 (stereo not drawn) [Compound 37] | ≥ 5.70 |
| CCOC1CC(c2ccccc2)OC2(CCN(C(=O)c3ccc(O[C@@H](C)CC)c(OC)c3)CC2)C1 (stereo partly drawn) [Compound 139] | ≥ 5.70 |
| CCOC1CC(c2ccccc2)OC2(CCN(C(=O)c3cccnc3NC(C)C)CC2)C1 (stereo not drawn) [Compound 75] | ≥ 5.70 |
| CCOC1CC(c2ccccc2)OC2(CCN(C(=O)c3ccc(C4(O)CCC4)cc3)CC2)C1 (stereo not drawn) [Compound 176] | ≥ 5.70 |
| CCOC1CC(c2ccccc2)OC2(CCN(C(=O)c3ccc(OC(C)C)c(C#N)c3)CC2)C1 (stereo not drawn) [Compound 127] | ≥ 5.70 |
| CCOC1CC(c2cncs2)OC2(CCN(C(=O)c3ccc(OC(C)C)c(C)c3)CC2)C1 (stereo not drawn) [Compound 18] | ≥ 5.70 |
| CCOC1CC(c2ccccc2)OC2(CCN(C(=O)c3cc(C)c(OC(C)C)c(C)c3)CC2)C1 (stereo not drawn) [Compound 29] | ≥ 5.70 |
| CCOC1CC(c2ccccc2)OC2(CCN(C(=O)c3ccc(OC(C)(C)C)c(OC)c3)CC2)C1 (stereo not drawn) [Compound 137] | ≥ 5.70 |
| CCOC1CC(c2ccccc2)OC2(CCN(C(=O)c3ccc(N4CCOCC4)cc3)CC2)C1 (stereo not drawn) [Compound 93] | ≥ 5.70 |
| CCOc1ncc(Cl)cc1C(=O)N1CCC2(CC1)CC(OCC)CC(c1ccccc1)O2 (stereo not drawn) [Compound 68] | 5.30 to 5.70 |
